For 1 molecule, inhibition and Activity results are on record in ChEMBL document CHEMBL1139888, “Fungicidal activities of dihydroferulic acid alkyl ester analogues” (2007).

Type in all cases: functional
Assay [1] relates to Saccharomyces cerevisiae. In words: Growth inhibition of Saccharomyces cerevisiae slt2delta deletion mutant at 1.6 mM relative to control after 48 hrs.
Assay [2] has as its system Saccharomyces cerevisiae. Put plainly: Antifungal activity against Saccharomyces cerevisiae slt2delta deletion mutant assessed as cell number at 1.6 mM after 48 hrs.
Assay [3] relates to Saccharomyces cerevisiae. In words: Growth inhibition of Saccharomyces cerevisiae slt2delta deletion mutant at 3.2 mM relative to control after 48 hrs.
In assay [4] the test system is Saccharomyces cerevisiae. Put plainly: Antifungal activity against Saccharomyces cerevisiae slt2delta deletion mutant assessed as cell number at 3.2 mM after 48 hrs.

Each structure is given as a SMILES string.

In the assay with Saccharomyces cerevisiae [1], `CCCOC(=O)CCc1ccc(O)c(OC)c1` [DIHYDROFERULIC ACID PROPYL ESTER] yielded an inhibition at 1600 µM of 75.5%. Also, the Activity in the assay with Saccharomyces cerevisiae [2] worked out at 1.13; with Saccharomyces cerevisiae [4], 0.43. Besides, the inhibition at 3200 µM in the assay with Saccharomyces cerevisiae [3] was 90.7%.
